From US6444420B2, “Use of GPR30 receptor ligands to mediate neurotrophic action” (The Board of Trustees of the Leland Stanford Junior …, priority 1999, dated 2002)
“Also recorded” adds a separate entry of the source.

Tests used:
[1] = tested on: mitogen-activated protein (MAP) kinases; conditions: literature, Singh et al. (1999); cited from earlier work
[2] = tested on: PC12 cells; experiment: PC12 cell differentiation and survival in serum-free media; type: cell-based; conditions: serum-free media with 100 nM 17β-estradiol, 6 days
Experimental: PC12 cells were maintained in either serum-free media (A) or serum-free media supplemented with 100 nM 17β-estradiol (B) for 6 days. Cells were monitored with phase-contrast microscope and typical images were captured using a CCD camera. Differentiated PC12 cells (arrows) can be observed with 17β-estradiol treatment (B), whereas massive cell death occurred in the control (A). The reagents used in these studies were those specified in the original references to methods employed, unless otherwise specified. We used established cell culture methods for growing cells and for examining their morphological responses (Zhou et al. (1994) Proc. Natl. Acad. Sci USA 91(9):3824-3828). To examine gene expression for GPR30 and the classical ERs, standard methods were used to isolate mRNA and to analyze it by Northern blot and by RT-PCR (GIBCO-BRL, Bethesda, Md.). The activity of Rap1 and of Ras were assayed using pull-down assays with fusion proteins that bind specifically to the GTP-bound forms of these proteins, as described (Herrmann et al. (1995) J. Biol. Chem. 270:2901-2905). These fusion proteins were produced essentially as described by these authors. The activity of MAP kinase was determined by immunoblotting cell lysates with antibodies to phosphorylated MAP kinase (Payne et al. (1991) EMBO J. 10(4):885-892). […]

[3] = tested on: Erk kinases (MAP kinase); experiment: Erk (MAP kinase) activation by immunoblot of PC12 cell lysates; type: cell-based; conditions: serum-starved PC12 cells, 100 nM 17β-estradiol, indicated time intervals
Experimental: (§1) As in FIG. 2, serum-starved PC12 cells were treated with 100 nM 17β-estraldiol for the indicated time intervals. Cells were-rinsed and lysed in RIPA buffer. Proteins were separated on SDS-PAGE, blotted onto PVDF membrane. The blot was probed for activated Erks (i.e activated MAP kinase) using rabbit IgGs against activated Erk kinases (UBI). The reagents used in these studies were those specified in the original references to methods employed, unless otherwise specified. We used established cell culture methods for growing cells and for examining their morphological responses (Zhou et al. (1994) Proc. Natl. Acad. Sci USA 91(9):3824-3828). To examine gene expression for GPR30 and the classical ERs, standard methods were used to isolate mRNA and to analyze it by Northern blot and by RT-PCR (GIBCO-BRL, Bethesda, Md.). The activity of Rap1 and of Ras were assayed using pull-down assays with fusion proteins that bind specifically to the GTP-bound forms of these proteins, as described (Herrmann et al. (1995) J. Biol. Chem. 270:2901-2905). These fusion proteins were produced essentially as described by these authors. The activity of MAP kinase was determined by immunoblotting cell lysates with antibodies to phosphorylated MAP kinase (Payne et al. (1991) EMBO J. 10(4):885-892). The source of these antibodies was from New England Biolabs, Inc. (Beverley, Mass.).

[4] = tested on: Ras; experiment: Ras activation pull-down assay in PC12 cells; type: cell-based; conditions: serum-starved PC12 cells, 100 nM 17β-estradiol, indicated time intervals
Experimental: Serum-starved PC12 cells were treated with 100 nM 17β-estradiol for the indicated time intervals. Activated Ras (A) and Rap1 (B) were precipitated from cell lysates and analyzed as described in the Materials and Methods. […] The activity of Rap1 and of Ras were assayed using pull-down assays with fusion proteins that bind specifically to the GTP-bound forms of these proteins, as described (Herrmann et al. (1995) J. Biol. Chem. 270:2901-2905). These fusion proteins were produced essentially as described by these authors.

[5] = tested on: Rap1; experiment: Rap1 activation pull-down assay in PC12 cells; type: cell-based; conditions: for Effect on Rap1 activation induced by 17β-estradiol: 100 nM 17β-estradiol plus 1 μM tamoxifen
Experimental: FIGS. 2A, 2B, 2C, 2D: 17β-estradiol elicits Rap1, but not Ras, activation in PC12 cells. Serum-starved PC12 cells were treated with 100 nM 17β-estradiol for the indicated time intervals. Activated Ras (A) and Rap1 (B) were precipitated from cell lysates and analyzed as described in the Materials and Methods. […] Tomaxifen itself has no effect on Rap1 activation in PC12 cells D.
Drug Screening Assays: These are used to identify GPR30 ligands that bind to and activate the GPR30 receptor. Drug screening identifies agents that enhance GPR30 activity. Of particular interest are screening assays for agents that have a low toxicity for human cells. In vitro or in vivo binding assays can be used to assess the extent to which a compound behaves as a specific ligand. Other assays are available to test for the activation of signaling pathways by ligand binding. One assay based on the finding that GPR30 activation results in the activation of the small GTPase Rap1, and of the other enzymes in the MAP kinase signaling pathway that is activated by Rap1. The assay for evaluating the activation of Rap1 examines the extent to which Rap1 is bound to GTP and employs a method as described by Herrmann et al. (1995) J. Biol. Chem 270:2901-2905. A wide variety of assays are available to assess the activation status of the enzymes downstream from Rap1. These include in vitro kinase assays for B-Raf, MEK, MAP kinase and Rsk (Cowley et al. (1994) Cell 77:841-852; Vossler et al. (1997) Cell 89:73-82). The activation of these proteins and some of their downstream targets (e.g. Elk-1 and CREB) may also be assessed through the use of antibodies to phosphorylated tyrosine or serine or threonine residues, which marks their active state (Payne et al. (1991) EMBO J. 10(4):885-892).
as §1, with “The” for “As in FIG. 2, serum-starved PC12 cells were treated with 100 nM 17β-estraldiol for the indicated time intervals. Cells were-rinsed and lysed in RIPA buffer. Proteins were separated on SDS-PAGE, blotted onto PVDF membrane. The blot was probed for activated Erks (i.e activated MAP kinase) using rabbit IgGs against activated Erk kinases (UBI). The”

[6] = tested on: 145 kDa intermediate neurofilament; experiment: 145 kDa intermediate neurofilament expression in PC12 cells (immunoblot); type: cell-based; conditions: serum-free media, 3 days
Source text: FIG. 5: Induction of the 145 kDa intermediate neurofilament expression by 17β-estradioi in PC12 cells. PC12 cells were maintained in either serum-free media supplemented with either NGF or 17β-estradiol at the indicated concentrations for 3 days. Treated as well as control cells were lysed in RIPA buffer and the lysates were separated on SDS-PAGE, transferred onto PVDF membrane. The blot was probed with specific antibodies against the 145 kDa intermediate neurofilament.

## 17β-estradiol
[1]
  Tyrosine phosphorylation/activation of MAP kinases: elicited rapid tyrosine phosphorylation/activation

## C[C@]12CC[C@@H]3c4ccc(O)cc4CC[C@H]3[C@@H]1CC[C@@H]2O [17β-estradiol]
[2]
  PC12 cell differentiation (neurite outgrowth): induces PC12 cell differentiation; also recorded: induced the outgrowth of long neurites
  PC12 cell survival under serum free culture: prevented these cells from dying
[3]
  Erk / MAP kinase activation (pERK): induces prolonged Erk activation; also recorded: induced sustained activation
[4]
  Ras activation: no detectable Ras activation and not
[5]; PC12 cells, first 10 minutes
  Activation of Rap1 during the first 10 minutes of treatment: little effect
[5]; PC12 cells, later than 10 minutes
  Activation of Rap1 at later times: marked effect
[5]; serum-starved PC12 cells, 100 nM 17β-estradiol, indicated time intervals
  Rap1 activation: induces Rap1 activation; also recorded: activated Rap1
[6]
  Expression of the 145 kDa intermediate neurofilament protein: Induction; also recorded: increasing the level of expression

## C[C@]12CC[C@@H]3c4ccc(O)cc4C[C@@H](CCCCCCCCC[S+]([O-])CCCC(F)(F)C(F)(F)F)[C@H]3[C@@H]1CC[C@@H]2O (some centres unmarked) [ICI 182,780]
[1]
  Inhibition of estradiol-elicited extracellular signal-regulated protein kinase activation: not

## COc1cccc(-c2cc(=O)c3ccccc3o2)c1N [PD98059]
[1]
  Inhibition of estradiol-elicited extracellular signal-regulated protein kinase activation: inhibited successfully

## CC/C(=C(\c1ccccc1)c1ccc(OCCN(C)C)cc1)c1ccccc1 [tamoxifen]
[5]; PC12 cells
  Effect on Rap1 activation induced by 17β-estradiol: blocked the response
[5]; PC12 cells, listed as tomaxifen
  Effect on Rap1 activation induced by 17β-estradiol: can be blocked
[5]; PC12 cells, tamoxifen alone
  Rap1 activation by the substance alone: no effect
